Measurements as given in patent US20250129080A1, “COMPOSITIONS AND METHODS OF USING THE SAME FOR TREATMENT OF NEURODEGENERATIVE AND MITOCHONDRIAL DISEASE” (Mitokinin, Inc., priority 2021, published 2025).

Key:
[1] = test system: HeLa cells expressing mt-Keima and YFP-Parkin (HeLa MKYP); assay: Human mt-Keima mitophagy assay; type: cell-based; conditions: Homo sapiens, HeLa, 16 hrs with compound, then FCCP/oligomycin for 6 hours, FACS
Protocol: Briefly, HeLa cells expressing mt-Keima and YFP-Parkin (HeLa MKYP) were plated at 10,000 cells/well in 96 well plates along with compounds at various concentrations. Following 16 hrs of incubation, cells were treated with […] FCCP/oligomycin for 6 hours, then analyzed via FACS for the presence of mitochondria in lysosomes (as determined by an emissions spectrum shift from the pH-sensitive mt-Keima tag).

SKOV3 cells = assay: In vitro mitosafety (glucose/galactose) assay; type: cell-based; conditions: highest mito-safe dose (gal/glc >0.80, IC20, SKOV3 cells, 20 hours) divided by mt-Keima EC50
Protocol: Briefly, SKOV3 cells (ATCC HTB-77) were plated in DMEM (Corning 10-013-CV) medium containing 25 mM glucose or DMEM with no glucose (Gibco 11966-025) supplemented with 10 mMV galactose at 9,000 cells/well in 96 well plates (Corning costar 3610). 24 hrs later, compounds, in DMSO, were added at various concentrations to a final 0.1% DMSO for all wells. […] After a 15 minute incubation cellular ATP levels were read out using a Promega GloMax® DiscoverMicroplate Reader.
The ratio of relative CellTiter-Glo values from cells grown in galactose to cells grown in glucose was determined (gal/glc ratio). The gal/glc ratio vs concentration is then graphed, and non-linear regression is used to find the highest concentration of MTK compound at which gal/glc >0.80 (the “highest mito-safe dose”, or IC20).

| Compound | EC50 [1] [nM] | Mito-Safety Index (highest safe dose/EC50) (SKOV3 cells) |
| --- | --- | --- |
| c1ccc2c(c1)OC[C@H](N1CCC3(CCCO3)C1)[C@H]2Nc1ncnc2[nH]c(C3CC3)cc12 (single isomer, unassigned) [EP-0042935] |  | 211.76 |
| C[C@@H]1CN([C@H]2COc3ccc(F)cc3[C@@H]2Nc2ncnc3[nH]c(C(F)(F)F)cc23)CCO1 [EP-0043863, N-((3R,4S)-6-fluoro-3-((R)-2-methylmorpholino)chroman-4-yl)-6-(trifluoromethyl)-7H-pyrrolo[2,3-d]pyrimidin-4-amine] | 170 | 40.0 |
| F[C@H]1CCN([C@H]2COc3ccccc3[C@@H]2Nc2nccc3[nH]c(C(F)(F)F)cc23)C1 [EP-0043870, N-((3R,4S)-3-((S)-3-fluoropyrrolidin-1-yl)chroman-4-yl)-2-(trifluoromethyl)-1H-pyrrolo[3,2-c]pyridin-4-amine] | 120 | 67.5 |
| N#C[C@H]1CCN([C@H]2COc3ccccc3[C@@H]2Nc2ncnc3[nH]c(C4CC4)cc23)C1 [EP-0042930] | 38 | 105.8 |
| CO[C@@H]1CCN([C@H]2COc3cc(F)ccc3[C@@H]2Nc2ncnc3[nH]c(C(F)(F)F)cc23)C1 [EP-0043690, N-((3R,4S)-7-fluoro-3-((R)-3-methoxypyrrolidin-1-yl)chroman-4-yl)-6-(trifluoromethyl)-7H-pyrrolo[2,3-d]pyrimidin-4-amine] | 140 | 68.6 |
| FC1CN([C@H]2COc3ccccc3[C@@H]2Nc2nccc3[nH]c(C(F)(F)F)cc23)C1 [EP-0043908, N-((3R,4S)-3-(3-fluoroazetidin-1-yl)chroman-4-yl)-2-(trifluoromethyl)-1H-pyrrolo[3,2-c]pyridin-4-amine] | 200 | 125.0 |
| c1ccc2c(c1)OC[C@H](N1CCCC1)[C@H]2Nc1ncnc2[nH]c(C3CC3)cc12 [EP-0042659, 6-Cyclopropyl-N-((3R,4S)-3-(Pyrrolidin-1-Yl)Chroman-4-Yl)-7H-Pyrrolo[2,3-D]Pyrimidin-4-Amine] | 251 | 54.54 |
| FC(F)(F)C1CN([C@H]2COc3ccccc3[C@@H]2Nc2ncnc3[nH]c(C4CC4)cc23)CCO1 (single isomer, unassigned) [EP-0042928] | 170 | 42.17 |
| c1ccc2c(c1)OC[C@H](N1CCOC3(CC3)C1)[C@H]2Nc1ncnc2[nH]c(C3CC3)cc12 [EP-0042535, N-((3R,4S)-3-(4-Oxa-7-Azaspiro[2.5]Octan-7-Yl)Chroman-4-Yl)-6-Cyclopropyl-7H-Pyrrolo[2,3-D]Pyrimidin-4-Amine] | 244 | 102.55 |
| C[C@@H]1CN([C@H]2COc3cccc(F)c3[C@@H]2Nc2ncnc3[nH]c(C(F)(F)F)cc23)CCO1 [EP-0043859, N-((3R,4S)-5-fluoro-3-((R)-2-methylmorpholino)chroman-4-yl)-6-(trifluoromethyl)-7H-pyrrolo[2,3-d]pyrimidin-4-amine] | 70 | 31.4 |
| F[C@H]1CCN([C@H]2COc3ccccc3[C@@H]2Nc2ncnc3[nH]c(C4CC4)cc23)C1 [EP-0042536, 6-Cyclopropyl-N-((3R,4S)-3-((S)-3-Fluoropyrrolidin-1-Yl)Chroman-4-Yl)-7H-Pyrrolo[2,3-D]Pyrimidin-4-Amine] | 154 | 89.78 |
| C[C@@H]1CN([C@H]2COc3cc(F)ccc3[C@@H]2Nc2ncnc3[nH]c(C4CCC4)cc23)CCO1 [EP-0044008, 6-cyclobutyl-N-((3R,4S)-7-fluoro-3-((R)-2-methylmorpholino)chroman-4-yl)-7H-pyrrolo[2,3-d]pyrimidin-4-amine] | 10 | 2500.0 |
| COC1CN([C@H]2COc3ccccc3[C@@H]2Nc2nccc3[nH]c(C(F)(F)F)cc23)C1 [EP-0043896, N-((3R,4S)-3-(3-methoxyazetidin-1-yl)chroman-4-yl)-2-(trifluoromethyl)-1H-pyrrolo[3,2-c]pyridin-4-amine] | 150 | 126.7 |
| C[C@@H]1CN([C@H]2COc3c(F)cccc3[C@@H]2Nc2ncnc3[nH]c(C(F)(F)F)cc23)CCO1 [EP-0043827, N-((3R,4S)-8-fluoro-3-((R)-2-methylmorpholino)chroman-4-yl)-6-(trifluoromethyl)-7H-pyrrolo[2,3-d]pyrimidin-4-amine] | 230 | 108.7 |
| CO[C@H]1CCCN([C@H]2COc3ccccc3[C@@H]2Nc2ncnc3[nH]c(C4CC4)cc23)C1 [EP-0042537, 6-Cyclopropyl-N-((3R,4S)-3-((S)-3-Methoxypiperidin-1-Yl)Chroman-4-Yl)-7H-Pyrrolo[2,3-D]Pyrimidin-4-Amine] | 268 | 37.03 |
| FC(F)C1CCN([C@H]2COc3ccccc3[C@@H]2Nc2ncnc3[nH]c(C(F)(F)F)cc23)C1 (stereo partly drawn) [EP-0043845, N-((3R,4S)-3-(3-(Difluoromethyl)Pyrrolidin-1-Yl)Chroman-4-Yl)-6-(Trifluoromethyl)-7H-Pyrrolo[2,3-D]Pyrimidin-4-Amine] | 40 | 95.0 |
| C[C@@H]1CN([C@H]2COc3cc(F)ccc3[C@@H]2Nc2ncnc3c2cc(C(F)(F)F)n3C)CCO1 [EP-0043854, N-((3R,4S)-7-fluoro-3-((R)-2-methylmorpholino)chroman-4-yl)-7-methyl-6-(trifluoromethyl)-7H-pyrrolo[2,3-d]pyrimidin-4-amine] | 250 | 99.6 |
| FC(F)C1CN([C@H]2COc3ccccc3[C@@H]2Nc2ncnc3[nH]c(C(F)(F)F)cc23)C1 [EP-0043831, N-((3R,4S)-3-(3-(difluoromethyl)azetidin-1-yl)chroman-4-yl)-6-(trifluoromethyl)-7H-pyrrolo[2,3-d]pyrimidin-4-amine] | 600 | 41.7 |
| FC1(F)CCN([C@H]2COc3ccccc3[C@@H]2Nc2ncnc3[nH]c(C4CC4)cc23)C1 [EP-0042660, 6-Cyclopropyl-N-((3R,4S)-3-(3,3-Difluoropyrrolidin-1-Yl)Chroman-4-Yl)-7H-Pyrrolo[2,3-D]Pyrimidin-4-Amine] | 139 | 179.63 |
| C[C@@H]1CN([C@H]2COc3cc(F)ccc3[C@@H]2Nc2nccc3[nH]c(C(F)(F)F)cc23)CCO1 [EP-0043830, N-((3R,4S)-7-fluoro-3-((R)-2-methylmorpholino)chroman-4-yl)-2-(trifluoromethyl)-1H-pyrrolo[3,2-c]pyridin-4-amine] | 50 | 118.0 |

Second part, led by results:

| EC50 [1] [nM] | Compound | Mito-Safety Index (highest safe dose/EC50) (SKOV3 cells) |
| --- | --- | --- |
| 415 | FC(F)(F)c1cc2c(N[C@H]3c4ccccc4OC[C@@H]3C3(F)CCOCC3)ncnc2[nH]1 [EP-0043236, N-[(3R,4R)-3-(4-Fluorotetrahydropyran-4-Yl)Chroman-4-Yl]-6-(Trifluoromethyl)-7H-Pyrrolo[2,3-D]Pyrimidin-4-Amine] | 59.18 |
| 372 | FC(F)(F)c1cc2c(N[C@H]3c4ccccc4OC[C@@H]3N3CCCC3)ncnc2[nH]1 [EP-0043440, N-((3R,4S)-3-(Pyrrolidin-1-Yl)Chroman-4-Yl)-6-(Trifluoromethyl)-7H-Pyrrolo[2,3-D]Pyrimidin-4-Amine] | 60.76 |
| 215 | OC1([C@H]2COc3ccccc3[C@@H]2Nc2ncnc3[nH]c(C4CC4)cc23)CCOCC1 [EP-0042202, 4-[(3R,4R)-4-[(6-Cyclopropyl-7H-Pyrrolo[2,3-D]Pyrimidin-4-Yl)Amino]Chroman-3-Yl]Tetrahydropyran-4-Ol] | 116.5 |
| 218 | OC1([C@H]2COc3ccccc3[C@@H]2Nc2ncnc3[nH]c(C(F)(F)F)cc23)CCOCC1 [EP-0042356, 4-[(3R,4R)-4-[[6-(Trifluoromethyl)-7H-Pyrrolo[2,3-D]Pyrimidin-4-Yl]Amino]Chroman-3-Yl]Tetrahydropyran-4-Ol] | 114.63 |
| 387 | F[C@H]1CCN([C@H]2COc3ccccc3[C@@H]2Nc2ncnc3[nH]c(C(F)(F)F)cc23)C1 [EP-0042972, N-((3R,4S)-3-((S)-3-Fluoropyrrolidin-1-Yl)Chroman-4-Yl)-6-(Trifluoromethyl)-7H-Pyrrolo[2,3-D]Pyrimidin-4-Amine] | 62.14 |
| 97 | N#C[C@H]1CCN([C@H]2COc3ccccc3[C@@H]2Nc2ncnc3[nH]c(C(F)(F)F)cc23)C1 [EP-0043263, (S)-1-((3R,4S)-4-((6-(Trifluoromethyl)-7H-Pyrrolo[2,3-D]Pyrimidin-4-Yl)Amino)Chroman-3-Yl)Pyrrolidine-3-Carbonitrile] | 120.52 |
| 30 | C[C@@H]1CCN([C@H]2COc3ccccc3[C@@H]2Nc2ncnc3[nH]c(C(F)(F)F)cc23)C1 [EP-0043821, N-((3R,4S)-3-((R)-3-methylpyrrolidin-1-yl)chroman-4-yl)-6-(trifluoromethyl)-7H-pyrrolo[2,3-d]pyrimidin-4-amine] | 70.0 |
| 110 | CC1(C#N)CCN([C@H]2COc3ccccc3[C@@H]2Nc2ncnc3[nH]c(C(F)(F)F)cc23)C1 (single isomer, unassigned) [EP-0043816] | 75.4 |
| 129 | N#C[C@@H]1CCN([C@H]2COc3ccccc3[C@@H]2Nc2ncnc3[nH]c(C(F)(F)F)cc23)C1 [EP-0043264, (R)-1-((3R,4S)-4-((6-(Trifluoromethyl)-7H-Pyrrolo[2,3-D]Pyrimidin-4-Yl)Amino)Chroman-3-Yl)Pyrrolidine-3-Carbonitrile] | 91.68 |
